The values that follow are results of earlier work, collected in patent US8632986B2, “Methods and kits for detection of toxemia” (priority 2008, dated 2014).

For the data set, the target named is albumin (Homo sapiens, UniProt P02768). The note with it: general statement.
Sequence of albumin (P02768 25-609, species assumed): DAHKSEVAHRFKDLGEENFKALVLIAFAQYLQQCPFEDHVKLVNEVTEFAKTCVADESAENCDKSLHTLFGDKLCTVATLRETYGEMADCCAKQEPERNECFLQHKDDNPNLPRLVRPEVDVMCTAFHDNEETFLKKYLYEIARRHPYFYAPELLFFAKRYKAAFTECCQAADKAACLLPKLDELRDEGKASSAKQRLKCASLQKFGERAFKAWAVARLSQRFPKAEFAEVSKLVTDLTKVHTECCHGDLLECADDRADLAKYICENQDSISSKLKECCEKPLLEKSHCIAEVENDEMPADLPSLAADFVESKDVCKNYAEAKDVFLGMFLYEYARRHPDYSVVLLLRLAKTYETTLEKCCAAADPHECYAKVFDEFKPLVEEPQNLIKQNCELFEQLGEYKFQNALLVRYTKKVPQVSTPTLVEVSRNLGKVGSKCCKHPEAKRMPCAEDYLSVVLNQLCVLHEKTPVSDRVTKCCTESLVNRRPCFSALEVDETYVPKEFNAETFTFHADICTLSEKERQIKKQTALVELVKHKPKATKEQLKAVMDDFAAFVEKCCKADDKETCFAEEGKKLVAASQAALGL

In the case of `CCCCCCCCCCCCCCCCCC(=O)O` [unlabeled stearic acid, stearic acid], the binding constant result is “about 10^9 mol^−1”.
